Values quoted from earlier work, collected in patent publication US20240342250A1, “COMPOSITION AND METHODS OF TREATMENT USING […]-ENHANCED SUPPLEMENTATION” (Xygenyx Inc., priority 2023, published 2024).
Non-standard residues stand in square brackets, D forms with d. Residues, ends and D or L forms follow the SMILES beside them. Cit = NC(=O)NCCC[C@H](N)C(=O)O

Legend:
symptoms of depression = details: patients who did not respond to traditional antidepressant medications
[1] = tested on: memory recall and cognitive function; details: compared to placebo; 34 pairs of matched adolescent students
skin [2] = tested on: skin
[3] = tested on: wide dynamic range neurons in the ventroposterolateral nucleus of the thalamus; details: is believed
[4] = generally considered safe and well-tolerated at doses of up to
skin [5] = details: topical formulations; within four weeks of treatment
skin [6] = details: topical, concentrations 0.5-5%
[7] = tested on: systemic inflammation, oxidative status, and liver cell metabolism associated with rheumatoid arthritis; details: arthritic subjects
[8] = compared to alpha-tocopherol = 1.0
[9] = even when dietary intake occurs in equal portions
[10] = tested on: markers of inflammation in the blood; details: individuals with metabolic syndrome
[11] = in vivo

Molecule: CN1c2c([nH]c(N)nc2=O)NCC1CNc1ccc(C(=O)N[C@@H](CCC(=O)O)C(=O)O)cc1 (stereo partly shown) [5-MTHF, 5-methyltetrahydrofolate]
- symptoms of depression (symptoms of depression): improved symptoms of depression

Molecule: C/C=C1\[C@H]2C=C(C)C[C@]1(N)c1ccc(=O)[nH]c1C2 [Huperzine A]
- memory recall and cognitive function [1]: significant improvements in memory recall and cognitive function

Molecule: CC(C)[C@@H]1CC[C@@H](C)C[C@H]1O [Menthol]
- increase of transdermal drug uptake, factor (skin [2]): ≥ 10

Molecule: CCCCCc1cc(O)c2c(c1)OC(C)(C)C1CCC(C)=CC21 (stereo not shown) [THC, Δ-9-tetrahydrocannabinol]
- potency in mediating pain relative to morphine [3]: ten times more powerful than morphine

Molecule: CCNC(=O)CC[C@H](N)C(=O)O [Theanine]
- safe and well-tolerated dose [4]: up to 400 mg per day

Molecule: CC[C@H](C)[C@H](NC(=O)[C@H](CC(=O)O)NC(=O)[C@@H](N)CCCCN)C(=O)N[C@@H](CCCNC(N)=O)C(N)=O [Tripeptide-10 citrulline] (H-KDI[Cit]-NH2)
- improvement of suppleness (skin [5]): ≤ 54%

Molecule: C=CCCCCCCCCC(=O)N[C@@H](Cc1ccccc1)C(=O)O [UP, Undecylenoyl phenylalanine]
- time to skin lightening effects (skin [6]): ≥ 7 days

Molecule: CC12CCC(CC1)C(C)(C)O2 [eucalyptol, Eucalyptol]
- increase of transdermal drug uptake, factor (skin [2]): more than 10

Molecule: Cc1c(C)c2c(c(C)c1O)CC[C@@](C)(CCC[C@H](C)CCC[C@H](C)CCCC(C)C)O2 [α-tocopherol]
- progression of age-related macular degeneration (400-500 IU in combination with 10-20 mg beta-carotene and 400-500 mg vitamin C): dramatically reduce the progression of age-related macular degeneration
- functional health of sperm (800-900 IU/day): improve functional health of sperm
- blood plasma concentration of F2-isoprostane (1600-3200 IU/day): significantly lower blood plasma concentration of F2-isoprostane
- reduction of risk of coronary disease (dietary supplementation, doses up to 400 IU/day): up to 34%
- reduction of risk of developing neurodegenerative diseases such as Alzheimer's Syndrome or dementia (dietary supplementation, doses up to 400 IU/day, controlled trials): ≤ 24%
- reduction in the development of age-related cataracts (in combination with 10-20 mg beta-carotene and 400-500 mg vitamin C): 23%

Molecule: C=C1CC/C=C(\C)CC[C@@H]2[C@@H]1CC2(C)C [β-caryophyllene]
- protein carbonyl groups and myeloperoxidase activity in liver and plasma [7]: eliminated increases of protein carbonyl groups and myeloperoxidase activity
- swelling of joints and lymph nodes, circulating and articular leukocytes [7]: reduced swelling of joints and lymph nodes as well as the number of circulating and articular leukocytes

Molecule: Cc1cc(O)c(C)c2c1O[C@](C)(CCC[C@H](C)CCC[C@H](C)CCCC(C)C)CC2 [β-tocopherol]
- relative biological activity [8]: 0.5

Molecule: Cc1c(O)cc2c(c1C)O[C@](C)(CCC[C@H](C)CCC[C@H](C)CCCC(C)C)CC2 [γ-tocopherol]
- concentration in vivo relative to alpha-tocopherol [9]: roughly 10%
- relative biological activity [8]: 0.1

Molecule: Cc1cc(O)cc2c1O[C@](C)(CCC[C@H](C)CCC[C@H](C)CCCC(C)C)CC2 [δ-tocopherol]
- markers of inflammation in the blood [10]: reduced markers of inflammation in the blood
- relative biological activity [8]: 0.03

Molecule: HGH: hormone comprising a peptide chain that is synthesized in the pituitary gland
- biological half-life [11]: 10-20 minutes
